# Experimental data from patent publication US20110295343A1, “NEAR-INFRARED ELECTROMAGNETIC MODIFICATION OF CELLULAR STEADY-STATE MEMBRANE POTENTIALS” (priority 2008, published 2011).
# Several values for one entry are separate records, joined by “and”; a condition that tells them apart may be missing. Equal values may be shown once.
# System: MRSA (ATCC BAA-43)
# Experiment: MRSA/antimicrobial potentiation, CFU on TSB agar with and without antibiotic after laser (Example XXII, Experiments 1-4)
# Assay type: cell-based, Staphylococcus aureus subsp. aureus
# Conditions: for CFU (single plate count): 0.5 μg/ml penicillin G or 4 μg/ml erythromycin, plates 1-5; for AVG (CFU): mean of 5 plates; for Drug Effect: CFU with drug relative to without drug; for Laser Effect (+Drug): Exp vs Cont, both with drug; for Laser Effect (+Meth): both on 30 μg/ml methicillin; for Meth Effect: CFU with methicillin / without; for AVG: mean of plates; for CFU: replicate plates
# Description: Four separate experiments have been performed.
# Eight different laser dosages were used to treat a saline-suspension of logarithmically growing MRSA, labeled A1 to H1.
# The treated and a control untreated suspension were diluted and plated in triplicate on trypic soy agar with or without 30 μg/ml methicillin After 24 hrs of growth at 37° C. colonies were counted.
# CFU (colony forming units) were compared between the plates with and without methicillin for both control (untreated) and treated MRSA.
# The treated and a control untreated suspension were diluted and plated in triplicate on trypic soy agar with or without 30 μg/mlmethicillin.
# After 24 hrs of growth at 37° C. colonies were counted.
# The treated and a control untreated suspension were diluted and plated in pentuplicate on trypic soy agar with or without 30 μg/ml methicillin.
# [1] = Cont (no laser), Drug yes, groups A4/C4/E4
# [2] = Cont (no laser), Drug yes, groups B4/D4/F4
# [3] = Exp (laser 870+930 at 5 W 14 min, then 930 at 6 W 9 min), Drug yes, groups B4/D4/F4
# [4] = Exp (laser 870+930 at 5.5 W 12 min, then 930 at 8 W 6 min), Drug yes, groups A4/C4/E4
# [5] = Exp#1 A1 Cont (no laser), agar with 30 μg/ml methicillin
# [6] = Exp#1 A1 Exp (laser treated), agar with 30 μg/ml methicillin
# [7] = Exp#1 B1 Cont (no laser), agar with 30 μg/ml methicillin
# [8] = Exp#1 B1 Exp (laser treated), agar with 30 μg/ml methicillin
# [9] = Exp#1 C1 Cont (no laser), agar with 30 μg/ml methicillin
# [10] = Exp#1 C1 Exp (laser treated), agar with 30 μg/ml methicillin
# [11] = Exp#1 D1 Cont (no laser), agar with 30 μg/ml methicillin
# [12] = Exp#1 D1 Exp (laser treated), agar with 30 μg/ml methicillin
# [13] = Exp#1 E1 Cont (no laser), agar with 30 μg/ml methicillin
# [14] = Exp#1 E1 Exp (laser treated), agar with 30 μg/ml methicillin
# [15] = Exp#1 F1 Cont (no laser), agar with 30 μg/ml methicillin
# [16] = Exp#1 F1 Exp (laser treated), agar with 30 μg/ml methicillin
# [17] = Exp#1 G1 Cont (no laser), agar with 30 μg/ml methicillin
# [18] = Exp#1 G1 Exp (laser treated), agar with 30 μg/ml methicillin
# [19] = Exp#1 H1 Cont (no laser), agar with 30 μg/ml methicillin
# [20] = Exp#1 H1 Exp (laser treated), agar with 30 μg/ml methicillin
# [21] = Exp#2 A2 Cont (no laser), agar with 30 μg/ml methicillin
# [22] = Exp#2 A2 Exp (laser treated), agar with 30 μg/ml methicillin
# [23] = Exp#2 B2 Cont (no laser), agar with 30 μg/ml methicillin
# [24] = Exp#2 B2 Exp (laser treated), agar with 30 μg/ml methicillin
compound,measurement,setting,value
COc1cccc(OC)c1C(=O)N[C@@H]1C(=O)N2[C@@H]1SC(C)(C)[C@@H]2C(=O)O [Methicillin],CFU/ml,[1],2.59E+08 CFU/ml
same,CFU (single plate count),"Cont (no laser), Drug yes, groups A4/C4/E4, agar with 30 μg/ml methicillin, 24 hrs 37° C.",97 CFU and 104 CFU and 82 CFU and 58 CFU and 90 CFU
same,AVG (CFU),[1],86.2 CFU
same,CFU/ml,[2],3.98E+08 CFU/ml
same,CFU (single plate count),"Cont (no laser), Drug yes, groups B4/D4/F4, agar with 30 μg/ml methicillin, 24 hrs 37° C.",149 CFU and 101 CFU and 119 CFU and 153 CFU and 141 CFU
same,AVG (CFU),[2],132.6 CFU
same,Drug Effect,"Cont (no laser), groups A4/C4/E4",0.94
same,Drug Effect,"Cont (no laser), groups B4/D4/F4",1.26
same,CFU/ml,[3],1.27E+08 CFU/ml
same,AVG (CFU),[3],42.4 CFU
same,Drug Effect,"Exp (laser 870+930 at 5 W 14 min, then 930 at 6 W 9 min), groups B4/D4/F4",0.48
same,CFU/ml,[4],1.09E+08 CFU/ml
same,AVG (CFU),[4],36.2 CFU
same,Drug Effect,"Exp (laser 870+930 at 5.5 W 12 min, then 930 at 8 W 6 min), groups A4/C4/E4",0.43
same,CFU (single plate count),"Exp (laser: 870 at 5 W and 930 at 5 W for 14 min followed by 930 at 6 W for 9 min), Drug yes, groups B4/D4/F4, 30 μg/ml methicillin",46 CFU and 34 CFU and 42 CFU and 44 CFU
same,CFU (single plate count),"Exp (laser: 870 at 5.5 W and 930 at 5.5 W for 12 min followed by 930 at 8 W for 6 min), Drug yes, groups A4/C4/E4, 30 μg/ml methicillin",37 CFU and 33 CFU and 36 CFU and 39 CFU
same,Laser Effect (+Drug),"laser 870+930 at 5 W 14 min, then 930 at 6 W 9 min, groups B4/D4/F4",0.32
same,Laser Effect (+Drug),"laser 870+930 at 5.5 W 12 min, then 930 at 8 W 6 min, groups A4/C4/E4",0.42
same,Laser Effect (+Meth),"Exp#1 A1, laser Exp / Cont",0.7035
same,Meth Effect,Exp#1 A1 Cont (no laser),0.6956
same,CFU/ml,[5],4.25E+08 CFU/ml
same,AVG,[5],141.7 CFU
same,CFU,[5],207 CFU and 137 CFU and 81 CFU
same,Meth Effect,Exp#1 A1 Exp (laser treated),0.7419
same,CFU/ml,[6],2.99E+08 CFU/ml
same,AVG,[6],99.7 CFU
same,CFU,[6],99 CFU and 96 CFU and 104 CFU
same,Laser Effect (+Meth),"Exp#1 B1, laser Exp / Cont",0.6693
same,Meth Effect,Exp#1 B1 Cont (no laser),0.8991
same,CFU/ml,[7],5.08E+08 CFU/ml
same,AVG,[7],169.3 CFU
same,CFU,[7],166 CFU and 192 CFU and 150 CFU
same,Meth Effect,Exp#1 B1 Exp (laser treated),0.5657
same,CFU/ml,[8],3.40E+08 CFU/ml
same,AVG,[8],113.3 CFU
same,CFU,[8],102 CFU and 107 CFU and 131 CFU
same,Laser Effect (+Meth),"Exp#1 C1, laser Exp / Cont",0.3259
same,Meth Effect,Exp#1 C1 Cont (no laser),1.267
same,CFU/ml,[9],1.22E+09 CFU/ml
same,AVG,[9],406 CFU
same,CFU,[9],240 CFU and 466 CFU and 512 CFU
same,Meth Effect,Exp#1 C1 Exp (laser treated),0.7192
same,CFU/ml,[10],3.97E+08 CFU/ml
same,AVG,[10],132.3 CFU
same,CFU,[10],95 CFU and 176 CFU and 126 CFU
same,Laser Effect (+Meth),"Exp#1 D1, laser Exp / Cont",1.0087
same,Meth Effect,Exp#1 D1 Cont (no laser),0.837
same,CFU/ml,[11],4.62E+08 CFU/ml
same,AVG,[11],154 CFU
same,CFU,[11],171 CFU and 141 CFU and 150 CFU
same,Meth Effect,Exp#1 D1 Exp (laser treated),0.7627
same,CFU/ml,[12],4.66E+08 CFU/ml
same,AVG,[12],155.3 CFU
same,CFU,[12],164 CFU and 153 CFU and 149 CFU
same,Laser Effect (+Meth),"Exp#1 E1, laser Exp / Cont",1.632
same,Meth Effect,Exp#1 E1 Cont (no laser),0.5828
same,CFU/ml,[13],3.94E+08 CFU/ml
same,AVG,[13],131.3 CFU
same,CFU,[13],147 CFU and 121 CFU and 126 CFU
same,Meth Effect,Exp#1 E1 Exp (laser treated),0.8297
same,CFU/ml,[14],6.43E+08 CFU/ml
same,AVG,[14],214.3 CFU
same,CFU,[14],181 CFU and 232 CFU and 230 CFU
same,Laser Effect (+Meth),"Exp#1 F1, laser Exp / Cont",0.9949
same,Meth Effect,Exp#1 F1 Cont (no laser),0.8735
same,CFU/ml,[15],5.94E+08 CFU/ml
same,AVG,[15],198 CFU
same,CFU,[15],197 CFU and 188 CFU and 209 CFU
same,Meth Effect,Exp#1 F1 Exp (laser treated),0.8289
same,CFU/ml,[16],5.91E+08 CFU/ml
same,AVG,[16],197 CFU
same,CFU,[16],206 CFU (2×) and 179 CFU
same,Laser Effect (+Meth),"Exp#1 G1, laser Exp / Cont",0.9605
same,Meth Effect,Exp#1 G1 Cont (no laser),0.9792
same,CFU/ml,[17],6.58E+08 CFU/ml
same,AVG,[17],219.3 CFU
same,CFU,[17],246 CFU and 222 CFU and 190 CFU
same,Meth Effect,Exp#1 G1 Exp (laser treated),0.8681
same,CFU/ml,[18],6.32E+08 CFU/ml
same,AVG,[18],210.7 CFU
same,CFU,[18],193 CFU and 237 CFU and 202 CFU
same,Laser Effect (+Meth),"Exp#1 H1, laser Exp / Cont",1.0381
same,Meth Effect,Exp#1 H1 Cont (no laser),0.7533
same,CFU/ml,[19],5.77E+08 CFU/ml
same,AVG,[19],192.3 CFU
same,CFU,[19],188 CFU and 206 CFU and 183 CFU
same,Meth Effect,Exp#1 H1 Exp (laser treated),0.815
same,CFU/ml,[20],5.99E+08 CFU/ml
same,AVG,[20],199.7 CFU
same,CFU,[20],211 CFU and 212 CFU and 176 CFU
same,Laser Effect (+Meth),"Exp#2 A2, laser Exp / Cont",1.15
same,Meth Effect,Exp#2 A2 Cont (no laser),0.72
same,CFU/ml,[21],1.07E+08 CFU/ml
same,AVG,[21],35.7 CFU
same,CFU,[21],35 CFU and 47 CFU and 25 CFU
same,Meth Effect,Exp#2 A2 Exp (laser treated),0.87
same,CFU/ml,[22],1.23E+08 CFU/ml
same,AVG,[22],41 CFU
same,CFU,[22],39 CFU and 48 CFU and 36 CFU
same,Laser Effect (+Meth),"Exp#2 B2, laser Exp / Cont",0.54
same,Meth Effect,Exp#2 B2 Cont (no laser),0.7
same,CFU/ml,[23],1.49E+08 CFU/ml
same,AVG,[23],49.7 CFU
same,CFU,[23],47 CFU and 56 CFU and 46 CFU
same,Meth Effect,Exp#2 B2 Exp (laser treated),0.77
same,CFU/ml,[24],8.00E+07 CFU/ml
same,AVG,[24],26.7 CFU
same,CFU,[24],27 CFU and 28 CFU and 25 CFU
same,Laser Effect (+Meth),"Exp#2 C2, laser Exp / Cont",0.23
same,Meth Effect,Exp#2 C2 Cont (no laser),0.99
